Assay results from US20180238860A1, “INDIVIDUAL METHOD PREDICTIVE OF THE DNA-BREAKING GENOTOXIC EFFECTS OF CHEMICAL OR BIOCHEMICAL AGENTS” (priority 2015, published 2018).

How the values were obtained:
Type in all cases: cell-based, human
[1] = system: MRC9 (control cells); experiment: pH2AX foci immunofluorescence 24 h after contacting, MRC9 control fibroblasts; details: for pH2AX(24 h) + 2xSEM / pH2AX(24 h): MRC9; for pH2AX(24 h): 24 hours after contacting
Method: (§1) the cells are fixed in 3% paraformaldehyde and 2% sucrose for 15 minutes at ambient temperature and permeabilized in 20 mM HEPES buffer solution (4-(2-hydroxyethyl)-1-piperazine ethane sulfonic acid) at pH 7.4, 50 mM NaCl, 3 mM MgCl2, 300 mM sucrose, 0.5% Triton X-100 (a non-ionic surfactant having the formula t-Oct-C6H4-(OCH2CH2)×OH where x=9-10, CAS No. 9002-93-1, supplied for example by Sigma Aldrich) for 3 minutes. The glass coverslips are then washed in phosphate buffer saline (known as the acronym PBS) before immunological staining. The incubation took place for 40 min at 37° C. in PBS supplemented with 2% bovine serum albumin (known as the acronym BSA or fraction V, supplied for example by Sigma Aldrich) and was followed by a wash with PBS. Anti-pH2AX primary antibodies are used at a concentration of 1:800. The incubations with anti-mouse FITC or anti-rabbit TRITC secondary antibodies (1:100, supplied by Sigma Aldrich) were performed at 37° C. in 2% BSA for 20 minutes. Glass coverslips were treated with Vectashield™ containing DAPI (4,6-Diamidino-2-phenylindole) to label the nucleus. Staining with DAPI also makes it possible, indirectly, to determine the number of cells in phase G1 (nuclei with homogenous DAPI staining), in phase S (nuclei with numerous pH2AX foci), in phase G2 (nuclei with heterogeneous DAPI staining) and metaphases (visible chromosomes).
Commercial MRC9 control fibroblasts were amplified according to the recommendations of the supplier (SIGMA-ALDRICH) until the number of cells sought was obtained. After obtaining a sufficient number of cells (generally after one to 3 weeks), the first experiments were conducted using the process according to the invention. The cells were inoculated on glass coverslips in Petri dishes. A portion of these coverslips was then contacted with the medium under test comprising 5FU at a given concentration presented in table 2 hereinafter.
(§2) After contacting with 5FU at a given concentration, the cells were stored in the culture incubator at 37° C. 24 hours after contacting with 5FU at a given concentration as presented in table 2, the mean number of nuclear foci obtained with the marker pH2AX was acquired. The acquisition of the results was carried out using these coverslips on an immunofluorescence microscope (Olympus model). The reading was performed directly by counting the foci obtained with the marker pH2AX on at least 50 cells in G0/G1 for each point or using dedicated image analysis software (imageJ).
In order to obtain results of sufficient statistical reliability to serve as a basis for diagnosis, 3 independent series of experiments were performed. The mean and standard errors of the mean (“SEM” or σ) of each of the numbers of foci acquired after 24 hours of contacting the control cells with 5FU at a given concentration was calculated and presented in table 2.

[2] = system: 03HLS cells; experiment: pH2AX foci immunofluorescence 24 h after contacting, 03HLS patient skin cell line; details: for pH2AX(24 h): 24 hours after contacting
Method: as §1
For the line 03 HLS, a skin cell sample from a patient was sampled by biopsy via the “skin punch” method known to those skilled in the art. The cell sample was then placed in DMEM medium+20% sterile fetal calf serum. The cell sample was then transferred without delay to a specialized laboratory, so that the sample remained not more than 38 hours at ambient temperature.
On receipt, the cell sample from the biopsy was established in the form of an amplifiable 03HLS cell line according to a procedure well known to culture laboratories and those skilled in the art: using particularly the trypsin dispersion, the cells are once again diluted in replenished medium and so on until the number of cells sought is obtained.
(§3) After obtaining a sufficient number of cells (generally after one to 3 weeks), the first experiments were conducted using the process according to the invention. The GM02718, or 03HLS, line cells were inoculated on glass coverslips in Petri dishes. A portion of these coverslips was then contacted with 5FU at a concentration of 30 μM. By way of verification, a further portion of these coverslips was contacted with 5FU at a given concentration (see table 2, see FIG. 2 (B) for the cell line GM02718, respectively FIG. 2 (C) for the cell line 03HLS).
as §2
(§4) In order to obtain results of sufficient statistical reliability to serve as a basis for diagnosis, 3 independent series of experiments were performed. The mean and standard errors of the mean (“SEM” or σ) of each of the numbers of foci acquired after 24 hours of contacting the control cells with 5FU at a given concentration was calculated and presented in table 2 and in FIG. 2 (B) for the cell line GM02718, respectively FIG. 2 (C) for the cell line 03HLS.

[3] = system: GM02718 cells; experiment: pH2AX foci immunofluorescence 24 h after contacting, GM02718 cell line; details: for pH2AX(24 h) + 2xSEM / pH2AX(24 h): GM002718; for pH2AX(24 h): 24 hours after contacting
Method: as §1
The cell line GM02718 was amplified according to the recommendations of the supplier (Coriell Institute) until the number of cells sought was obtained.
as §3, §2, §4

In the case of `O=c1[nH]cc(F)c(=O)[nH]1` [5FU], the “pH2AX(24 h) + 2xSEM” value ([1]; 5FU 1.00 μM) is reported as 1.97 foci, the “pH2AX(24 h)” value ([1]; 5FU 1.00 μM) is reported as 1.16 foci and the “pH2AX(24 h) + 2xSEM” value ([1]; 5FU 3.00 μM) is reported as 1.93 foci. The “pH2AX(24 h)” value ([1]; 5FU 3.00 μM) was 1.38 foci, the “pH2AX(24 h) + 2xSEM” value ([1]; 5FU 10.00 μM) was 0.51 foci and the “pH2AX(24 h)” value ([1]; 5FU 10.00 μM) was 0.30 foci. The “pH2AX(24 h) + 2xSEM” value ([1]; 5FU 30.00 μM) was 2.01 foci, the “pH2AX(24 h)” value ([1]; 5FU 30.00 μM) was 1.18 foci and the “reference concentration Cref defined by NpH2AX(24 h, Cref)+2σ=2” value ([1]; control cell line MRC9) was 30 µM. The “pH2AX(24 h) + 2xSEM” value ([2]; 03HLS, 5FU 1.00 μM) was 1.49 foci, the “pH2AX(24 h)” value ([2]; 03HLS, 5FU 1.00 μM) was 1.40 foci and the “pH2AX(24 h) + 2xSEM” value ([2]; 03HLS, 5FU 3.00 μM) was 2.26 foci. For the same molecule, the “pH2AX(24 h)” value ([2]; 03HLS, 5FU 3.00 μM) was 1.69 foci, the “pH2AX(24 h) + 2xSEM” value ([2]; 03HLS, 5FU 10.00 μM) was 1.69 foci and the “pH2AX(24 h)” value ([2]; 03HLS, 5FU 10.00 μM) was 1.63 foci. The “pH2AX(24 h) + 2xSEM” value ([2]; 03HLS, 5FU 30.00 μM) was 2.59 foci, the “pH2AX(24 h)” value ([2]; 03HLS, 5FU 30.00 μM) was 2.00 foci and the “number of pH2AX foci” value ([2]; 03HLS, 5FU concentration of 30 μM, 24 h) was roughly 2.59 foci. The genotoxic risk group ([2]; cell line 03HLS at Cref 30 μM) was “group II”, the “pH2AX(24 h) + 2xSEM” value ([3]; 5FU 1.00 μM) was 3.32 foci and the “pH2AX(24 h)” value ([3]; 5FU 1.00 μM) was 2.70 foci. For the same molecule, the “pH2AX(24 h) + 2xSEM” value ([3]; 5FU 3.00 μM) was 2.43 foci, the “pH2AX(24 h)” value ([3]; 5FU 3.00 μM) was 2.41 foci and the “pH2AX(24 h) + 2xSEM” value ([3]; 5FU 10.00 μM) was 3.87 foci. For the same molecule, the “pH2AX(24 h)” value ([3]; 5FU 10.00 μM) was 2.96 foci, the “pH2AX(24 h) + 2xSEM” value ([3]; 5FU 30.00 μM) was 2.38 foci and the “pH2AX(24 h)” value ([3]; 5FU 30.00 μM) was 2.38 foci. For the same molecule, the “number of pH2AX foci” value ([3]; GM02718, 5FU concentration of 30 μM, 24 h) was “approximately 2.38 foci” and the genotoxic risk group ([3]; cell line GM02718 at Cref 30 μM) was “group II”.
